Measurements from PubChem BioAssay (NCI).
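Test compounds were applied to cells in 96-well plates for 48 hours at 5 doses. TGI marks complete inhibition of growth.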

Tests used:
Test in all cases: growth of human tumour cells (NCI), 48 h
[1] = system: NCI-H23 lung
[2] = system: T-47D breast
[3] = system: NCI-H460 lung
[4] = system: SNB-75 CNS
[5] = system: UO-31 renal
[6] = system: DU-145 prostate
[7] = system: UACC-257 melanoma
[8] = system: OVCAR-4 ovarian
[9] = system: TK-10 renal
[10] = system: SNB-19 CNS
[11] = system: NCI-H522 lung
[12] = system: A498 renal
[13] = system: HT29 colon
[14] = system: U251 CNS
[15] = system: PC-3 prostate
[16] = system: SF-268 CNS
[17] = system: MOLT-4 leukemia
[18] = system: OVCAR-8 ovarian
[19] = system: HOP-62 NSCLC
[20] = system: SK-MEL-5 melanoma
[21] = system: NCI-H226 lung
[22] = system: MDA-N
[23] = system: MALME-3M melanoma
[24] = system: NCI/ADR-RES ovarian
[25] = system: MDA-MB-435
[26] = system: COLO 205 colon
[27] = system: HS 578T breast
[28] = system: A549 NSCLC
[29] = system: SN12C renal
[30] = system: HCC-2998 colon
[31] = system: MDA-MB-231 breast
[32] = system: HOP-92 NSCLC
[33] = system: SK-MEL-28 melanoma
[34] = system: OVCAR-5 ovarian
[35] = system: K-562 leukemia
[36] = system: HL-60(TB) leukemia
[37] = system: BT-549 breast
[38] = system: OVCAR-3 ovarian
[39] = system: IGROV1 ovarian
[40] = system: SK-MEL-2 melanoma
[41] = system: HCT-15 colon
[42] = system: SW-620 colon
[43] = system: CAKI-1 renal
[44] = system: RPMI-8226 leukemia
[45] = system: M14 melanoma
[46] = system: ACHN renal
[47] = system: EKVX NSCLC
[48] = system: RXF 393 renal
[49] = system: SK-OV-3 ovarian
[50] = system: SR leukemia
[51] = system: MCF7 breast
[52] = system: SF-295 CNS
[53] = system: LOX IMVI melanoma
[54] = system: SF-539 CNS
[55] = system: UACC-62 melanoma
[56] = system: HCT-116 colon
[57] = system: KM12 colon
[58] = system: CCRF-CEM leukemia
[59] = system: 786-0 renal

`COC(=O)/C=C\n1ncc(=O)[nH]c1=O` was tested, and the TGI [1] was over 100 µM, the TGI [2] was over 100 µM and the TGI [3] was over 100 µM. It also gave a TGI [4] of over 100 µM, a TGI [5] of over 100 µM and a TGI [6] of over 100 µM. The TGI [7] was over 100 µM, the TGI [8] was over 100 µM and the TGI [9] was over 100 µM. For the same molecule, the TGI [10] was over 100 µM, the TGI [11] was over 100 µM and the TGI [12] was over 100 µM. The TGI [13] was over 100 µM, the TGI [14] was over 100 µM and the TGI [15] was over 100 µM. For the same molecule, the TGI [16] was over 100 µM, the TGI [17] was over 100 µM and the TGI [18] was over 100 µM. It also gave a TGI [19] of over 100 µM, a TGI [20] of over 100 µM and a TGI [21] of over 100 µM. It also gave a TGI [22] of over 100 µM, a TGI [23] of over 100 µM and a TGI [24] of over 100 µM. It also gave a TGI [25] of over 100 µM, a TGI [26] of over 100 µM and a TGI [27] of over 100 µM. The TGI [28] was over 100 µM, the TGI [29] was over 100 µM and the TGI [30] was over 100 µM. It also gave a TGI [31] of over 100 µM, a TGI [32] of over 100 µM and a TGI [33] of over 100 µM. For the same molecule, the TGI [34] was over 100 µM, the TGI [35] was over 100 µM and the TGI [36] was over 100 µM. It also gave a TGI [37] of over 100 µM, a TGI [38] of over 100 µM and a TGI [39] of over 100 µM. The TGI [40] was over 100 µM, the TGI [41] was over 100 µM and the TGI [42] was over 100 µM. For the same molecule, the TGI [43] was over 100 µM, the TGI [44] was over 100 µM and the TGI [45] was over 100 µM. For the same molecule, the TGI [46] was over 100 µM and the TGI [47] was over 100 µM.
`Cc1ccc(S(=O)(=O)NC(CCC(=O)NN)C(=O)NN)cc1` (stereo unspecified) showed a TGI [1] of over 100 µM, a TGI [2] of over 100 µM and a TGI [48] of over 100 µM. It also gave a TGI [3] of 21.6 µM, a TGI [4] of over 100 µM and a TGI [49] of over 100 µM. The TGI [5] was over 100 µM, the TGI [50] was over 100 µM and the TGI [7] was over 100 µM. For the same molecule, the TGI [8] was over 100 µM, the TGI [9] was over 100 µM and the TGI [10] was over 100 µM. The TGI [11] was over 100 µM, the TGI [12] was over 100 µM and the TGI [13] was over 100 µM. For the same molecule, the TGI [51] was over 100 µM, the TGI [14] was over 100 µM and the TGI [15] was over 100 µM. For the same molecule, the TGI [16] was over 100 µM, the TGI [17] was over 100 µM and the TGI [18] was over 100 µM. The TGI [52] was over 100 µM, the TGI [19] was over 100 µM and the TGI [20] was over 100 µM. The TGI [53] was over 100 µM, the TGI [21] was over 100 µM and the TGI [22] was over 100 µM. It also gave a TGI [54] of over 100 µM, a TGI [23] of over 100 µM and a TGI [24] of over 100 µM. The TGI [55] was over 100 µM, the TGI [25] was over 100 µM and the TGI [26] was over 100 µM. It also gave a TGI [27] of over 100 µM, a TGI [28] of over 100 µM and a TGI [31] of over 100 µM. For the same molecule, the TGI [32] was over 100 µM, the TGI [34] was over 100 µM and the TGI [35] was over 100 µM. The TGI [56] was over 100 µM, the TGI [36] was over 100 µM and the TGI [37] was over 100 µM. The TGI [38] was over 100 µM, the TGI [39] was over 100 µM and the TGI [40] was over 100 µM. It also gave a TGI [41] of over 100 µM, a TGI [57] of over 100 µM and a TGI [42] of over 100 µM. For the same molecule, the TGI [43] was over 100 µM, the TGI [44] was over 100 µM and the TGI [45] was over 100 µM. It also gave a TGI [46] of over 100 µM, a TGI [47] of over 100 µM and a TGI [58] of over 100 µM. It also gave a TGI [59] of over 100 µM.
Work on `CC1(C)CC(=O)C(Cc2ccccc2)(Cc2ccccc2)C(=O)C1` yielded a TGI [1] of over 100 µM, a TGI [2] of over 100 µM and a TGI [48] of over 100 µM. It also gave a TGI [3] of over 100 µM, a TGI [4] of over 100 µM and a TGI [49] of over 100 µM. For the same molecule, the TGI [5] was over 100 µM, the TGI [6] was over 100 µM and the TGI [50] was over 100 µM. For the same molecule, the TGI [7] was over 100 µM, the TGI [8] was over 100 µM and the TGI [9] was over 100 µM. For the same molecule, the TGI [10] was over 100 µM, the TGI [11] was over 100 µM and the TGI [13] was over 100 µM. The TGI [51] was over 100 µM, the TGI [14] was over 100 µM and the TGI [15] was over 100 µM. For the same molecule, the TGI [16] was over 100 µM, the TGI [17] was over 100 µM and the TGI [18] was over 100 µM. The TGI [52] was over 100 µM, the TGI [19] was over 100 µM and the TGI [20] was over 100 µM. For the same molecule, the TGI [53] was over 100 µM, the TGI [21] was over 100 µM and the TGI [22] was over 100 µM. It also gave a TGI [54] of over 100 µM, a TGI [23] of over 100 µM and a TGI [24] of over 100 µM. It also gave a TGI [55] of over 100 µM, a TGI [26] of over 100 µM and a TGI [27] of over 100 µM. The TGI [28] was over 100 µM, the TGI [29] was over 100 µM and the TGI [30] was over 100 µM. It also gave a TGI [31] of over 100 µM, a TGI [33] of over 100 µM and a TGI [34] of over 100 µM. It also gave a TGI [35] of over 100 µM, a TGI [56] of over 100 µM and a TGI [36] of over 100 µM. The TGI [37] was over 100 µM, the TGI [39] was over 100 µM and the TGI [40] was over 100 µM. It also gave a TGI [41] of over 100 µM, a TGI [57] of over 100 µM and a TGI [42] of over 100 µM. The TGI [43] was over 100 µM, the TGI [45] was over 100 µM and the TGI [46] was over 100 µM. It also gave a TGI [47] of over 100 µM, a TGI [58] of over 100 µM and a TGI [59] of over 100 µM.
